Read-outs that look alike come from different tables or passages of the source. Values belong to the compound of their own block, whether it stands above or below them.
Legend:
[1] = cited from earlier work
[2] = potentiometric titration: stability of the Ca(II) complex; assay type: physicochemical
Procedure: (§1) The solutions of Ca(II) could be prepared by dissolution of CaCI2 in water. The exact concentration of the ion Ca^2+ can be determined by colorimetric titration at a pH 12.5 using as a reference a solution of […] calgonite as an indicator. 20 mL of a solution of […] (3,10-^4 M), acidified (pH 2.5) 1:1 Ln:mixture of ligands ([L] 3.10-^4 M), acidified (pH 2.5) 1:1 Ca:mixture of ligands ([L] 7.10-^5M) are titrated in a cell with a thermostat (25.0° C.+/-0.1° C.) under Argon after addition of a solution of KOH 0.1 M. The ionic load was determined with KCl (μ=00.1 M). The titrations have been conducted with a Metrohm 751 GPD Titrino potentiometer fitted with a glass pH electrode. The electrode system was calibrated before each measurement. The electromotive load is given by the equation E=E°+sp[H^+] wherein E° and s are determined by titration of a known amount de HCl with 0.1 M KOH at μ=0.1 M (KCl), using the zone of the acid for the titration. […] More than 50 data points have been collected for each experiment.

[3] = cited from earlier work; remark: listed apart in the source
[4] = potentiometric titration: de-protonation constants of the ligand; assay type: physicochemical; settings: 25.0° C., μ=0.1 M KCl, listed as H6tpaen
Source text: Besides, five de-protonation constants [pKa1=2.8 (1), pKa22=3.2 (1), pKa3=3.9 (2), pKa4=5.1 (1) and pKa5=7.8 (1)] may be determined for the ligand H6tpaen by potentiometric titration as well the stability constants of the corresponding complexes of Eu^III and of CaII [log βEuL=15.3(3) for the complex of Eu^III and log βCaL=8.5 (5)].
For potentiometric titration, the solutions of the complex of Eu(III) may be prepared by dissolution of a determined amount of EuCI3.6H2O in water. The de-protonation constants of H6tpaen are given by Kai=[H6-iL]^2-1/[H5−iL]^1-i[H]^+, and as already mentioned previously, the values obtained are pKa1=2.8(1), pKa2=3.2(1), pKa3=3.9(2), pKa44=5.1(1) and pKa5=7.8(1).
The solutions of Ca(II) could be prepared by dissolution of CaCI2 in water. The exact concentration of the ion Ca^2+ can be determined by colorimetric titration at a pH 12.5 using as a reference a solution of H2Na2edta and calgonite as an indicator. 20 mL of a solution of H4tpaen (3,10−^4 M), acidified (pH˜2.5) 1:1 Ln:mixture of ligands ([L] 3.10−^4 M), acidified (pH˜2.5) 1:1 Ca:mixture of ligands ([L] 7.10−^5M) are titrated in a cell with a thermostat (25.0° C.+/−0.1° C.) under Argon after addition of a solution of KOH 0.1 M.
The ionic load was determined with KCl (μ=00.1 M). The titrations have been conducted with a Metrohm 751 GPD Titrino potentiometer fitted with a glass pH electrode. The electrode system was calibrated before each measurement.
The electromotive load is given by the equation E=E°+sp[H^+] wherein E° and s are determined by titration of a known amount de HCl with 0.1 M KOH at μ=0.1 M (KCl), using the zone of the acid for the titration. The value used for the ionic product of water was pKw=13.77. More than 50 data points have been collected for each experiment.

[5] = absorption / excitation spectra; assay type: physicochemical
Source text: (full line) and [Tb(tpaen)] (dotted line) after excitation of the ligand at 274 nm.
An efficient energy transfer from the ligand to the metal is put forward by the resemblance between the excitation and absorption spectra of the Europium and Terbium complexes.

[6] = potentiometric titration: stability of the Eu(III) complex; assay type: physicochemical
Source text: as §1, with “For potentiometric titration, the solutions of the complex of Eu(III) may be prepared by dissolution of a determined amount of EuCI3.6H2O in water. […] The exact concentration of the ion Eu^3+ could be determined by colorimetric titration in an acetate buffer (pH=4.5), using as a reference a solution of […] orange xylenol as an indicator. The solutions” for “The solutions”

[7] = stability of the Gd complex (pGd); assay type: physicochemical; settings: pH 7.4, [M]total=1 μM, [ligand]total=10 μM
[8] = pH 7.4, [M]total=1 μM, [ligand]total=10 μM

Compound: O=C(O)c1ccccc1C1=c2cc3c4c(c2Oc2c1cc1c5c2CCCN5CCC1)CCC[N+]=4CCC3.[Cl-] [rhodamine 101]
Qabs of the standard ([1]; ethanol): 100%

Compound: cresyl violet
Qabs of the standard ([1]; methanol): 54%

stability constant log βCaL ([2]; potentiometric titration, 25.0° C., μ=0.1 M KCl): 8.5 (5)
Compound: O=C([O-])c1cccc(CN(CCN(Cc2cccc(C(=O)O)n2)Cc2cccc(C(=O)O)n2)Cc2cccc(C(=O)[O-])n2)n1.[Ca+2] [Catpaen]

Compound: O=C(O)CN(CCN(CC(=O)O)CC(=O)O)CC(=O)O [EDTA, tetra acetic diamine ethylene acid]
pEu, comparison value for EDTA [3]: 14.0

de-protonation constant pKa1 [4]: 2.8 (1)
de-protonation constant pKa2 [4]: 3.2 (1)
de-protonation constant pKa3 [4]: 3.9 (2)
de-protonation constant pKa4 [4]: 5.1 (1)
de-protonation constant pKa5 [4]: 7.8 (1)
λexc [5]: 270 nm
ε ([5]; at λexc): 15800 M⁻¹ cm⁻¹
pEu (−log [M]free) [6, 8]: 15.7
pCa (−log [M]free) [2, 8]: 8.5
pGd (−log [M]free) [7]: 15.0
Compound: O=C(O)c1cccc(CN(CCN(Cc2cccc(C(=O)O)n2)Cc2cccc(C(=O)O)n2)Cc2cccc(C(=O)O)n2)n1 [tpaen, N,N,N′,N′-tetrakis[(6-carboxypyridine-2-yle)methyl]-ethylene diamine]
selectivity for Europium with respect to calcium ([6]; from pEu versus pCa): good selectivity regarding Europium with respect to calcium

Source: US8309058B2, “Method for obtaining highly luminescent lanthanide complexes” (Commissariat a l'Energie Atomique, priority 2005, dated 2012)
